From the supplement of paper PMC10307832

Experiments:
Assay in all cases: relative viability (nuclei count vs DMSO), 5 days (fraction); higher = more cells survive
Alisertib + Phenformin = compound: COc1cc(Nc2ncc3c(n2)-c2ccc(Cl)cc2C(c2c(F)cccc2OC)=NC3)ccc1C(=O)O [Alisertib] + N=C(N)NC(=N)NCCc1ccccc1 [Phenformin] (partner 250 µM)
Procedure, shortened: (§1)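 Cells from lung cancer lines were seeded into 1536-well plates and, one day later, dosed by pin tool. Treatments were either a single drug or a fixed dose of an anchor drug with five library-drug doses (not always all listed) in √10 steps. After 5 days, nuclei were stained in a one-step fixation (final 0.05% Triton X-100, 1% formaldehyde, 1 ug/ml Hoechst) and counted on 4× images, and relative viability is the treated-to-vehicle nuclei ratio, as the median of duplicate plates.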

Alisertib + AZD7762 = compound: COc1cc(Nc2ncc3c(n2)-c2ccc(Cl)cc2C(c2c(F)cccc2OC)=NC3)ccc1C(=O)O [Alisertib] + NC(=O)Nc1cc(-c2cccc(F)c2)sc1C(=O)N[C@H]1CCCNC1 [AZD7762] (partner 0.2 µM)
Procedure, shortened: as §1

Alisertib + Alpelisib = compound: COc1cc(Nc2ncc3c(n2)-c2ccc(Cl)cc2C(c2c(F)cccc2OC)=NC3)ccc1C(=O)O [Alisertib] + Cc1nc(NC(=O)N2CCC[C@H]2C(N)=O)sc1-c1ccnc(C(C)(C)C(F)(F)F)c1 [Alpelisib] (partner 2 µM)
Procedure, shortened: as §1

Alisertib + Pictilisib = compound: COc1cc(Nc2ncc3c(n2)-c2ccc(Cl)cc2C(c2c(F)cccc2OC)=NC3)ccc1C(=O)O [Alisertib] + CS(=O)(=O)N1CCN(Cc2cc3nc(-c4cccc5[nH]ncc45)nc(N4CCOCC4)c3s2)CC1 [Pictilisib] (partner 1 µM)
Procedure, shortened: as §1

LXF-289 was tested. Which relative viability (Alisertib + Phenformin; first compound 0.005 µM) did it give?
Its relative viability is 0.434.

What about the relative viability (Alisertib + Phenformin; first compound 0.01581 µM) of the same cell line?
The relative viability was 0.338.

What about the relative viability (Alisertib + Phenformin; first compound 0.05 µM) of the same cell line?
Its relative viability is 0.325.

What about the relative viability (Alisertib + Phenformin; first compound 0.1581 µM) of the same cell line?
The relative viability was 0.114.

What about the relative viability (Alisertib + Phenformin; first compound 0.5 µM) of the same cell line?
Its relative viability is 0.109.

What about the relative viability (Alisertib + AZD7762; first compound 0.005 µM) of the same cell line?
Its relative viability is 0.922.

And the relative viability (Alisertib + AZD7762; first compound 0.01581 µM)?
Its relative viability is 0.637.

What about the relative viability (Alisertib + AZD7762; first compound 0.05 µM) of the same cell line?
The relative viability was 0.682.

And the relative viability (Alisertib + AZD7762; first compound 0.1581 µM)?
Its relative viability is 0.163.

What about the relative viability (Alisertib + AZD7762; first compound 0.5 µM) of the same cell line?
The relative viability was 0.138.

And the relative viability (Alisertib + Alpelisib; first compound 0.005 µM)?
The relative viability was 0.909.

And the relative viability (Alisertib + Alpelisib; first compound 0.01581 µM)?
Its relative viability is 0.592.

What about the relative viability (Alisertib + Alpelisib; first compound 0.05 µM) of the same cell line?
Its relative viability is 0.215.

And the relative viability (Alisertib + Alpelisib; first compound 0.1581 µM)?
The relative viability was 0.133.

What about the relative viability (Alisertib + Alpelisib; first compound 0.5 µM) of the same cell line?
The relative viability was 0.0979.

What about the relative viability (Alisertib + Pictilisib; first compound 0.005 µM) of the same cell line?
Its relative viability is 0.701.

What about the relative viability (Alisertib + Pictilisib; first compound 0.01581 µM) of the same cell line?
The relative viability was 0.565.

What about the relative viability (Alisertib + Pictilisib; first compound 0.05 µM) of the same cell line?
The relative viability was 0.576.

And the relative viability (Alisertib + Pictilisib; first compound 0.1581 µM)?
The relative viability was 0.103.

What about the relative viability (Alisertib + Pictilisib; first compound 0.5 µM) of the same cell line?
The relative viability was 0.0904.

Which results are given for NCI-H23?
relative viability (Alisertib + Phenformin; first compound 0.005 µM): 0.666; relative viability (Alisertib + Phenformin; first compound 0.01581 µM): 0.512; relative viability (Alisertib + Phenformin; first compound 0.05 µM): 0.518; relative viability (Alisertib + Phenformin; first compound 0.1581 µM): 0.233; relative viability (Alisertib + Phenformin; first compound 0.5 µM): 0.163; relative viability (Alisertib + AZD7762; first compound 0.005 µM): 0.194; relative viability (Alisertib + AZD7762; first compound 0.01581 µM): 0.139; relative viability (Alisertib + AZD7762; first compound 0.05 µM): 0.127; relative viability (Alisertib + AZD7762; first compound 0.1581 µM): 0.135; relative viability (Alisertib + AZD7762; first compound 0.5 µM): 0.0999; relative viability (Alisertib + Alpelisib; first compound 0.005 µM): 0.819; relative viability (Alisertib + Alpelisib; first compound 0.01581 µM): 0.462; relative viability (Alisertib + Alpelisib; first compound 0.05 µM): 0.228; relative viability (Alisertib + Alpelisib; first compound 0.1581 µM): 0.173; relative viability (Alisertib + Alpelisib; first compound 0.5 µM): 0.157; relative viability (Alisertib + Pictilisib; first compound 0.005 µM): 0.422; relative viability (Alisertib + Pictilisib; first compound 0.01581 µM): 0.302; relative viability (Alisertib + Pictilisib; first compound 0.05 µM): 0.18; relative viability (Alisertib + Pictilisib; first compound 0.1581 µM): 0.185; relative viability (Alisertib + Pictilisib; first compound 0.5 µM): 0.147

What does the source list for NCI-H322M?
relative viability (Alisertib + Phenformin; first compound 0.005 µM): 0.683; relative viability (Alisertib + Phenformin; first compound 0.01581 µM): 0.793; relative viability (Alisertib + Phenformin; first compound 0.05 µM): 0.572; relative viability (Alisertib + Phenformin; first compound 0.1581 µM): 0.412; relative viability (Alisertib + Phenformin; first compound 0.5 µM): 0.409; relative viability (Alisertib + AZD7762; first compound 0.005 µM): 0.435; relative viability (Alisertib + AZD7762; first compound 0.01581 µM): 0.565; relative viability (Alisertib + AZD7762; first compound 0.05 µM): 0.47; relative viability (Alisertib + AZD7762; first compound 0.1581 µM): 0.393; relative viability (Alisertib + AZD7762; first compound 0.5 µM): 0.395; relative viability (Alisertib + Alpelisib; first compound 0.005 µM): 0.64; relative viability (Alisertib + Alpelisib; first compound 0.01581 µM): 0.794; relative viability (Alisertib + Alpelisib; first compound 0.05 µM): 0.857; relative viability (Alisertib + Alpelisib; first compound 0.1581 µM): 0.476; relative viability (Alisertib + Alpelisib; first compound 0.5 µM): 0.303; relative viability (Alisertib + Pictilisib; first compound 0.005 µM): 0.497; relative viability (Alisertib + Pictilisib; first compound 0.01581 µM): 0.477; relative viability (Alisertib + Pictilisib; first compound 0.05 µM): 0.451; relative viability (Alisertib + Pictilisib; first compound 0.1581 µM): 0.321; relative viability (Alisertib + Pictilisib; first compound 0.5 µM): 0.311

What does the source list for NCI-H358?
relative viability (Alisertib + Phenformin; first compound 0.005 µM): 0.259; relative viability (Alisertib + Phenformin; first compound 0.01581 µM): 0.262; relative viability (Alisertib + Phenformin; first compound 0.05 µM): 0.118; relative viability (Alisertib + Phenformin; first compound 0.1581 µM): 0.0826; relative viability (Alisertib + Phenformin; first compound 0.5 µM): 0.0797; relative viability (Alisertib + AZD7762; first compound 0.005 µM): 0.424; relative viability (Alisertib + AZD7762; first compound 0.01581 µM): 0.433; relative viability (Alisertib + AZD7762; first compound 0.05 µM): 0.183; relative viability (Alisertib + AZD7762; first compound 0.1581 µM): 0.175; relative viability (Alisertib + AZD7762; first compound 0.5 µM): 0.165; relative viability (Alisertib + Alpelisib; first compound 0.005 µM): 0.753; relative viability (Alisertib + Alpelisib; first compound 0.01581 µM): 0.584; relative viability (Alisertib + Alpelisib; first compound 0.05 µM): 0.257; relative viability (Alisertib + Alpelisib; first compound 0.1581 µM): 0.19; relative viability (Alisertib + Alpelisib; first compound 0.5 µM): 0.151; relative viability (Alisertib + Pictilisib; first compound 0.005 µM): 0.269; relative viability (Alisertib + Pictilisib; first compound 0.01581 µM): 0.327; relative viability (Alisertib + Pictilisib; first compound 0.05 µM): 0.217; relative viability (Alisertib + Pictilisib; first compound 0.1581 µM): 0.154; relative viability (Alisertib + Pictilisib; first compound 0.5 µM): 0.14
